Test results: US20100324152A1, “USE OF 1,2-DECANEDIOL FOR SEBUM REDUCTION AND COSMETIC AND/OR DERMATOLOGICAL FORMULATIONS COMPRISING 1,2-DECANEDIOL” (priority 2006, published 2010)

Tests used:
[1] = Dropping point of a model sebum containing 1,2-decanediol (AOCS Cc 18-80/ASTM D 3954); type: physicochemical; details: addition of 20 wt. % 1,2-decanediol to model sebum, versus 1,2-decanediol-free model sebum
Source text: To check the extent to which 1,2-decanediol has a sebum-fluidizing property and is therefore capable of reducing the sebum concentration on the skin surface, and in particular in the sebaceous gland follicles, by a physical route, the influence of 1,2-decanediol on the dropping point of a model sebum was first investigated. On the basis of these publications, a model […] was developed which substantially comprises saturated and unsaturated free fatty acids, wax-like substances, triglycerides and cholesterol and, in detail, is composed of the following substances: palmitic acid, oleic acid, stearic acid, squalene, myristyl myristate, cetyl palmitate, tripalmitin, triolein and cholesterol. The exact quantitative composition of the model sebum (contents of the individual substances in per cent by weight; wt. %) can be seen from the following Table 1. [table] To investigate the influence of 1,2-decanediol on the physical properties of the model sebum, 20 wt. % 1,2-decanediol was added to the model sebum. The dropping points of the 1,2-decanediol-free model sebum and the model sebum sample containing 20 wt. % 1,2-decanediol were then determined using the method for dropping point determination according to AOCS Cc 18-80/ASTM D 3954.

[2] = system: P. acnes; details: reported in EP 1 598 064 A1; cited from earlier work

For `CCCCCCCCC(O)CO` (centres unmarked) [1,2-decanediol], the “reduction of the dropping point of model sebum” value [1] is given as 12.7 °C and the “antibacterial action in the suspension test” value [2] is given as “as good as no antibacterial action”.
